Test results as given in patent publication US20250376481A1, “POLYCYCLIC CARBAMOYL PYRIDONE DERIVATIVE, PREPARATION METHOD THEREFOR AND PHARMACEUTICAL COMPOSITION THEREOF” (NANJING AIDEA PHARMACEUTICAL TECHNOLOGY CO., LTD., priority 2021, published 2025).
Like-named read-outs stand apart in the source and are kept apart here.

Assays:
HIV-1 pseudovirus = HIV-1 pseudovirus infection test (antiviral activity, luciferase); type: cell-based
Procedure: (§1) • Virus: The HIV-1 pseudovirus used in this experiment was a replication deficient virus, which is constructed by WuXi AppTec. • HEK 293T cell line was purchased from ATCC, and Item No. is CRL-11268. Cells were cultured in DMEM medium with 10% fetal bovine serum and 1% double antibody. • Reagents
(§2) On the first day, HEK 293T cells were inoculated into a 96 well test plate at the density of 55000 cells per well and […] per well, and incubated overnight in a 5% CO2 and 37° C. incubator.
(§3) On the second day, the tested compounds (compounds provided in the example of the present invention) and the control compounds were diluted 4-fold with cell culture medium for a total of 8 concentration points, and 50 μL diluted compounds were added to each well, and each well was performed duplicate.
Subsequently, the HIV-1 pseudovirus was diluted to 100 TCID50/50 μL with cell culture medium, and 50 μL diluted virus was added to each well.
(§4) Cell Control (cells, no compound treatment or virus infection) and virus control (cells infected with virus, no compound treatment) were set up. The final initial test concentration of the tested compounds and control compounds was 1000 nM (Table 1), and the amount of virus infection was 100 TCID50 per well. The total volume of cell culture medium was 200 μL per well, and the final concentration of DMSO in the culture medium was 0.5%.
(§5) The cells were cultured in a 5% CO2 and 37° C. incubator for additional 3 days.
On the fifth day, in the antiviral activity test plates, 100 μL cell supernatant was sucked away from each well, 100 μL 2X luciferase reporter gene assay reagent Britellite plus was added in dark. The luciferase activity in each well of the test plates was detected by Envision. The data was used for sample antiviral activity analysis.
(§6) Dose-response curve was drawn through GraphPad Prism software. The calculation equations for antiviral activity (% Inhibition) and cell viability (% cell viability) were as follow:
(§7) The values of EC50 and CC50 were analyzed by GraphPad Prism (version 5) software, and nonlinear fitting analysis was used for inhibitory activity and cell viability of the compounds, and the fitting method was “log (inhibitor) vs. response—Variable slope”.
(§8) 3. The HIV-1 pseudovirus experiment was applied to determinate the in vitro antiviral activity and cytotoxicity of the tested compound on HEK 293T cells, and the experimental results were shown in the table below.

[1] = Cytotoxicity test (cell viability, CellTier Glo); type: cell-based; details: human
Procedure: as §1, §2, §3, §4, §5
(§9) On the fifth day, in the cytotoxicity test plates, 100 μL cell supernatant were sucked from each well, 100 μL cell viability assay reagent CellTier Gloin was added in dark. Cell viability in each well was detected by BioTek enzyme-linked immunosorbent assay reader, and the data was used for sample cytotoxicity analysis.
as §6, §7, §8

HEK 293T cells = assay: Cytotoxicity test (cell viability, CellTier Glo); type: cell-based; details: HEK 293T cells, highest test concentration 1000 nM
Procedure: as §1, §2, §3, §4, §5, §9, §6, §7, §8

[2] = PK test of compounds (mouse); type: in vivo, ICR mice; details: for bioavailability (in words): PK test in mice; for half-life / bioavailability: male, mouse, plasma, ICR mice; for half-life: PO 10 mg/kg; for bioavailability: PO 10 mg/kg (IV 2 mg/kg)
Procedure: The mice were not fed until 5 pm on the day before administration, and fasted overnight with water. The mice in Group IV were administered with 2 mg/kg, while those in Group PO were administered with 10 mg/kg. Feeding was resumed 2 hours after administration. For mice administered by gavage, 20 μL blood was collected from the saphenous vein in calf before administration and 0.25, 0.5, 1, 2, 4, 8, and 24 hours after administration, respectively, and placed in EDTA-K2 anticoagulant blood collection tubes, and then the blood would be placed on ice until centrifuged to obtain plasma samples. The plasma samples were centrifuged at 4° C. (3500 rpm, 10 min), and after separation, the samples were transferred to EP tubes and stored at −80° C. for detection. For mice admistrated by intravenous injection, 20 μL blood was collected from the saphenous vein in calf before administration and 0.0833, 0.25, 0.5, 1, 2, 4, 8 and 24 hours after administration, respectively, and placed in EDTA-K2 anticoagulant blood collection tubes, and then the blood would be placed on ice until centrifuged to obtain a plasma sample. The plasma samples were centrifuged at 4° C. (3500 rpm, 10 min), and after separation, the samples were transferred to EP tubes and stored at −80° C. for detection. The level of tested compounds in blood plasma of mice, who had orally administrated with different concentrations of drugs were determinated: 10 μL mouse blood at each time point after administration was taken, 100 μL methanol containing an internal standard (100 ng/mL) was added, vortex mixed for 1 minute, centrifuged at 4° C. (12000 rmp, 5 minutes), and 1 μL supernatant was taken from the plasma samples for LC-MS/MS analysis.

[3] = Oil-water partition coefficient (n-octanol / pH 7.4 phosphate buffer); type: physicochemical
Procedure: • a) To a 5 mL glass bottle was added 1 mL n-octanol and 1 mL pH 7.4 phosphate buffer, respectively. • b) The compound was added to a DMSO solution to prepare a compound stock solution with a concentration of 10 mM, and then 20 μL compound stock solution was added to the mixture solution of n-octanol and phosphate buffer. • c) Shaken at room temperature for 1 hour at a rate of 300/minute. • d) Kept for 30 minutes, and after the solution was completely layered, the upper and lower layers of the solution were taken separately to a 96 well deep well plate, and LC-MS/MS was used for detection via injection. • e) The aliquots of 1-octanol and aqueous solution were diluted consecutively with DMSO to obtain the final sample for LC-MS/MS analysis. Three consecutive dilutions were carried on every 1-octanol phase with covering a concentration range of 2500 fold. Every final aqueous phase was diluted consecutively twice with covering a concentration range of 100 fold. The MS peak areas of these solutions were used to generate log (peak area) based on the log (relative concentration) calibration line.
[formula] • Coct=sample concentration in n-octanol • Caq=sample concentration in pH 7.4 phosphate buffer

HIV-1 integrase = HIV-1 integrase (Human immunodeficiency virus type 1 group M subtype B, UniProt P04585); assay: Integrase activity test (HIV-1 Integrase Assay Kit EZ-1700)
Procedure: A non-radioactive assay method, an integrase assay kit, was used to measure integrase activity quantitatively.
Each component was prepared according to the instructions of the kit; preparation of test sample, 5 mM DMSO solution was prepared for backup, working solution was prepared according to the initial final concentration determined at the time of method establishment, with a 4-fold gradient dilution and 10 concentrations.
• (1) The working solution of sample was prepared according to the initial concentration determinated during the methodology establishment process; • (2) Reagents were prepared according to the methods provided in the kit; • (3) DS DNA coating—blocking—addition of integrase solution—addition of sample—addition of TS DNA—addition of HRP antibody-addition of TMB peroxidase substrate—TMB termination reaction-detection of light absorption value at 450 nm.
The software Graphpad Prism 8.0 was applied and the calculation equation of Log (inhibitor) vs. response variable slope was used to fit the IC50 curve.

[4] = Human immunodeficiency virus 1, HEK-293T, 72 h
[5] = HIV-1 pseudovirus, HEK 293T cells, 3 days, luciferase, read-out: EC50
[6] = n-octanol / pH 7.4 phosphate buffer, pH 7.4, read-out: Log D (pH 7.4)

C[C@H]1N2C(=O)c3c(O)c(=O)c(C(=O)NCc4ccc(F)cc4F)cn3C[C@@H]2OCC12CCOCC2 [Compound 5]
EC50 (HIV-1 pseudovirus; [4]): 4.45 nM | CC50 at 3 days [1]: > 1000 nM

(R)—N-(2,4-difluorophenyl)-6′-hydroxy-5′,7′-dioxo-5′,7′,11′,11a′-tetrahydro-2′H-spiro[cyclopropane-1,3′-oxazole[3,2-a]pyridino[1,2-d]pyrazine]-8′-formamide [Compound 18]
EC50 (HIV-1 pseudovirus; [5]): 3.34 nM | CC50 (HEK 293T cells): > 1000 nM

C[C@H]1N2C(=O)c3c(O)c(=O)c(C(=O)NCc4ccc(F)cc4F)cn3C[C@@H]2OC12CCCCC2 [Compound 12]
EC50 (HIV-1 pseudovirus; [4]): 4.93 nM | CC50 at 3 days [1]: > 1000 nM

C[C@@H]1CC2(CCCC2)O[C@H]2Cn3cc(C(=O)NCc4ccc(F)cc4F)c(=O)c(O)c3C(=O)N12 [Compound 7]
EC50 (HIV-1 pseudovirus; [4]): 11.6 nM | CC50 at 3 days [1]: > 1000 nM

(S)—N-(2,4-difluorophenyl)-6′-hydroxy-5′,7′-dioxo-5′,7′,11′,11a′-tetrahydro-2′H-spiro[cyclopropane-1,3′-oxazole[3,2-a]pyridino[1,2-d]pyrazine]-8′-formamide [Compound 17]
EC50 (HIV-1 pseudovirus; [5]): 3.73 nM | CC50 (HEK 293T cells): > 1000 nM

C[C@H]1N2C(=O)c3c(O)c(=O)c(C(=O)NCc4ccc(F)cc4F)cn3C[C@@H]2OCC12CCC2 [Compound 2]
EC50 (HIV-1 pseudovirus; [4]): 1.19 nM | bioavailability (in words) [2]: good bioavailability | half-life [2]: 1.94 ± 0.04 h | bioavailability [2]: 50.8% | CC50 at 3 days [1]: > 1000 nM | logD [3, 6]: 2.5

O=C(NCc1c(F)cc(F)cc1F)c1cn2c(c(O)c1=O)C(=O)N1[C@H]3CC[C@H](C3)O[C@@H]1C2 [BIC, Bictegravir, reference compound]
IC50 (HIV-1 integrase): 21.2 nM

C[C@@H]1CC2(CC2)O[C@H]2Cn3cc(C(=O)NCc4ccc(F)cc4F)c(=O)c(O)c3C(=O)N12 [Compound 6]
EC50 (HIV-1 pseudovirus; [4]): 3.03 nM | bioavailability (in words) [2]: good bioavailability | half-life [2]: 2.68 ± 0.66 h | bioavailability [2]: 42.5% | CC50 at 3 days [1]: > 1000 nM | logD [3, 6]: 2

C[C@@H]1CC2(CCCCC2)O[C@H]2Cn3cc(C(=O)NCc4ccc(F)cc4F)c(=O)c(O)c3C(=O)N12 [Compound 8]
EC50 (HIV-1 pseudovirus; [4]): 13.7 nM | CC50 at 3 days [1]: > 1000 nM

(S)—N-(2,4-difluorophenyl)-7′-hydroxy-6′,8′-dioxo-2′,3′,6′,8′,12′,12a′-hexahydrospiro[cyclopropane-1,4′-pyridino[1′,2′:4,5]pyrazine[2,1-b][1,3]oxazine]-9′-formamide [Compound 14]
EC50 (HIV-1 pseudovirus; [5]): 8.72 nM | CC50 (HEK 293T cells): > 1000 nM

C[C@H]1N2C(=O)c3c(O)c(=O)c(C(=O)NCc4ccc(F)cc4F)cn3C[C@@H]2OCC12CCCCC2 [Compound 4]
EC50 (HIV-1 pseudovirus; [4]): 5.83 nM | CC50 at 3 days [1]: > 1000 nM

O=C(NCc1ccc(F)cc1F)c1cn2c(c(O)c1=O)C(=O)N1C(C2)OCCC12CC2 (racemic) [Compound 13, (2,4-difluorophenyl)-7′-hydroxy-6′,8′-dioxo-2′,3′,6′,8′,12′,12a′-hexahydrospiro[cyclopropane-1,4′-pyridino[1′,2′:4,5]pyrazine[2,1-b][1,3]oxazine]-9′-formamide]
EC50 (HIV-1 pseudovirus; [4]): 1.05 nM | CC50 at 3 days [1]: > 1000 nM | logD ([3]; pH 7.4): 1.5

Cc1nnc(C(=O)NC(C)(C)c2nc(C(=O)NCc3ccc(F)cc3)c(O)c(=O)n2C)o1 [RAL, Raltegravir, reference compound]
antiviral activity against HIV-1 pseudovirus (in words) (HIV-1 pseudovirus; HEK 293T cells): have antiviral activity | EC50 (HIV-1 pseudovirus; [4]): 3.42 nM | CC50 at 3 days ([1]; HEK 293T cells, highest test concentration 1000 nM, read-out: CC50): > 1000 nM

O=C(NCc1ccc(F)cc1F)c1cn2c(c(O)c1=O)C(=O)N1C(C2)OCC12CC2 (racemic) [Compound 16]
EC50 (HIV-1 pseudovirus; [4]): 1.11 nM | CC50 at 3 days [1]: > 1000 nM | logD ([3]; pH 7.4): 1.8

(R)—N-(2,4-difluorophenyl)-7′-hydroxy-6′,8′-dioxo-2′,3′,6′,8′,12′,12a′-hexahydrospiro[cyclopropane-1,4′-pyridino[1′,2′:4,5]pyrazine[2,1-b][1,3]oxazine]-9′-formamide [Compound 15]
EC50 (HIV-1 pseudovirus; [5]): 14 nM | CC50 (HEK 293T cells): > 1000 nM

C[C@H]1N2C(=O)c3c(O)c(=O)c(C(=O)NCc4ccc(F)cc4F)cn3C[C@@H]2OC12CC2 [Compound 10]
EC50 (HIV-1 pseudovirus; [4]): 2.7 nM | bioavailability (in words) [2]: good bioavailability | half-life [2]: 1.53 ± 1.06 h | bioavailability [2]: 32.9% | CC50 at 3 days [1]: > 1000 nM | logD [3, 6]: 1.9

C[C@@H]1CCO[C@H]2Cn3cc(C(=O)NCc4ccc(F)cc4F)c(=O)c(O)c3C(=O)N12 [DTG, Dolutegravir, reference compound]
antiviral activity against HIV-1 pseudovirus (in words) (HIV-1 pseudovirus; HEK 293T cells): have antiviral activity | EC50 (HIV-1 pseudovirus; [4]): 1.49 nM | half-life [2]: 3.7 ± 0.09 h | bioavailability [2]: 46% | CC50 at 3 days [1]: > 1000 nM | logD [3, 6]: 1.6

C[C@@H]1CC2(CCOCC2)O[C@H]2Cn3cc(C(=O)NCc4ccc(F)cc4F)c(=O)c(O)c3C(=O)N12 [Compound 9]
EC50 (HIV-1 pseudovirus; [4]): 5.09 nM | CC50 at 3 days [1]: > 1000 nM

C[C@H]1N2C(=O)c3c(O)c(=O)c(C(=O)NCc4ccc(F)cc4F)cn3C[C@@H]2OCC12CCCC2 [Compound 3]
EC50 (HIV-1 pseudovirus; [4]): 5.63 nM | CC50 at 3 days [1]: > 1000 nM

C[C@]12CC[C@H]3[C@@H](CCC4=CC(=O)CC[C@@]43C)[C@@H]1CC[C@@H]2O [Testosterone, reference compound]
logD ([3]; n-octanol / pH 7.4 phosphate buffer, read-out: Log D (pH 7.4)): 2.85
